In patent publication US7417156B2, “Orally active, antimalarial, anticancer, artemisinin-derived trioxane dimers” (Johns Hopkins University, priority 2002, dated 2008):
pIC50: −log10 of the molar value.

Assays:
[1] = tested on: U251; test: NCI 60 cell line panel screen (SRB); type: cell-based, human
[2] = tested on: PC-3; test: NCI 60 cell line panel screen (SRB); type: cell-based, human; settings: for Log10TGI50: TGI: PG=0
[3] = tested on: CCRF-CEM; test: NCI 60 cell line panel screen (SRB); type: cell-based, human; settings: for Log10TGI50: TGI: PG=0
[4] = tested on: NCI/ADR-RES; test: NCI 60 cell line panel screen (SRB); type: cell-based, human; settings: for Log10GI50: Breast Cancer, NCI/ADR-RES; for Log10TGI50: TGI: PG=0
[5] = tested on: HCT-116; test: NCI 60 cell line panel screen (SRB); type: cell-based, human; settings: for Log10TGI50: TGI: PG=0
[6] = tested on: HCT-15; test: NCI 60 cell line panel screen (SRB); type: cell-based, human; settings: for Log10TGI50: TGI: PG=0
[7] = tested on: NCI-H460; test: NCI 60 cell line panel screen (SRB); type: cell-based, human; settings: for Log10TGI50: TGI: PG=0
[8] = tested on: COLO 205; test: NCI 60 cell line panel screen (SRB); type: cell-based, human
[9] = tested on: RXF 393; test: NCI 60 cell line panel screen (SRB); type: cell-based, human; settings: for Log10TGI50: TGI: PG=0
[10] = tested on: SK-MEL-2; test: NCI 60 cell line panel screen (SRB); type: cell-based, human; settings: for Log10GI50: Melanoma, SK-MEL-2
[11] = tested on: MCF7; test: NCI 60 cell line panel screen (SRB); type: cell-based, human; settings: for Log10GI50: Breast Cancer, MCF7
[12] = tested on: KM12; test: NCI 60 cell line panel screen (SRB); type: cell-based, human; settings: for Log10TGI50: TGI: PG=0
[13] = tested on: CAKI-1; test: NCI 60 cell line panel screen (SRB); type: cell-based, human
[14] = tested on: 60 cell line panel; type: cell-based; settings: for Log10LC50 Delta / Log10LC50 Range / Log10TGI50 Delta / Log10TGI50 Range: 60 cell line panel
[15] = tested on: OVCAR-3; test: NCI 60 cell line panel screen (SRB); type: cell-based, human
[16] = tested on: MALME-3M; test: NCI 60 cell line panel screen (SRB); type: cell-based, human; settings: MALME-3M (Melanoma); for Log10TGI50: TGI: PG=0
[17] = tested on: HL-60(TB); test: NCI 60 cell line panel screen (SRB); type: cell-based, human; settings: for Log10TGI50: TGI: PG=0
[18] = tested on: M14; test: NCI 60 cell line panel screen (SRB); type: cell-based, human; settings: for Log10TGI50: M-14 (Melanoma), TGI: PG=0; for Log10GI50: Melanoma, M14
[19] = tested on: K-562; test: NCI 60 cell line panel screen (SRB); type: cell-based, human; settings: for Log10TGI50: TGI: PG=0
[20] = tested on: OVCAR-8; test: NCI 60 cell line panel screen (SRB); type: cell-based, human; settings: for Log10GI50: Ovarian Cancer, OVCAR-8
[21] = tested on: RPMI-8226; test: NCI 60 cell line panel screen (SRB); type: cell-based, human
[22] = tested on: SK-MEL-28; test: NCI 60 cell line panel screen (SRB); type: cell-based, human
[23] = tested on: NCI-H23; test: NCI 60 cell line panel screen (SRB); type: cell-based, human; settings: NCI-H23 (Non-Small Cell Lung Cancer); TGI: PG=0
[24] = tested on: HOP-92; test: NCI 60 cell line panel screen (SRB); type: cell-based, human
[25] = tested on: chloroquine-sensitive P. falciparum (NF54); test: Antimalarial activity in vitro, [3H]hypoxanthine incorporation; type: cell-based; settings: Table I; NF54 strain; read-out: IC50
[26] = NCI-H460 (Non-Small Cell Lung Cancer)
[27] = mean value over the 60 cell line panel

## CC(=O)O[C@H]1C(=O)[C@@]2(C)[C@H]([C@H](OC(=O)c3ccccc3)[C@]3(O)C[C@H](OC(=O)[C@H](O)[C@@H](NC(=O)c4ccccc4)c4ccccc4)C(C)=C1C3(C)C)[C@]1(OC(C)=O)CO[C@@H]1C[C@@H]2O [Paclitaxel, paclitaxel, reference compound]
[1]; CNS Cancer, U251
  Log10GI50: −11.29
[1]; U251 (CNS Cancer), LC50: PG=−50
  Log10LC50: −4.15 log10M
[1]; U251 (CNS Cancer), TGI: PG=0
  Log10TGI50: −4.32 log10M
[2]; PC-3 (Prostate Cancer), LC50: PG=−50
  Log10LC50: >−4.00 log10M
[2]; PC-3 (Prostate Cancer)
  Log10TGI50: >−4.00 log10M
[2]; Prostate Cancer, PC-3
  Log10GI50: −10.85
[3]; CCRF-CEM (Leukemia), LC50: PG=−50
  Log10LC50: >−4.00 log10M
[3]; CCRF-CEM (Leukemia)
  Log10TGI50: >−4.00 log10M
[3]; Leukemia, CCRF-CEM
  Log10GI50: −11.61
[4]
  Log10GI50: −8.48
[4]; NCI/ADR-RES (Breast Cancer), LC50: PG=−50
  Log10LC50: >−4.00 log10M
[4]; NCI/ADR-RES (Breast Cancer)
  Log10TGI50: >−4.00 log10M
[5]; Colon Cancer, HCT-116
  Log10GI50: <−13.00
[5]; HCT-116 (Colon Cancer), LC50: PG=−50
  Log10LC50: >−4.00 log10M
[5]; HCT-116 (Colon Cancer)
  Log10TGI50: −4.82 log10M
[6]; Colon Cancer, HCT-15
  Log10GI50: −6.37
[6]; HCT-15 (Colon Cancer), LC50: PG=−50
  Log10LC50: >−4.00 log10M
[6]; HCT-15 (Colon Cancer)
  Log10TGI50: >−4.00 log10M
[7]; NCI-H460 (Non-Small Cell Lung Cancer), LC50: PG=−50
  Log10LC50: >−4.00 log10M
[7]; [26]
  Log10TGI50: −4.92 log10M
[7]; Non-Small Cell Lung Cancer, NCI-H460
  Log10GI50: −12.16
[8]; COLO 205 (Colon Cancer), LC50: PG=−50
  Log10LC50: >−4.41 log10M
[8]; Colon Cancer, COLO 205
  Log10GI50: −11.07
[9]; RXF 393 (Renal Cancer), LC50: PG=−50
  Log10LC50: >−4.00 log10M
[9]; RXF 393 (Renal Cancer)
  Log10TGI50: >−4.00 log10M
[9]; Renal Cancer, RXF 393
  Log10GI50: −8.32
[10]
  Log10GI50: −9.53
[10]; SK-MEL2 (Melanoma), LC50: PG=−50
  Log10LC50: >−4.00 log10M
[11]
  Log10GI50: −11.69
[11]; MCF7 (Breast Cancer), LC50: PG=−50
  Log10LC50: >−4.00 log10M
[12]; Colon Cancer, KM12
  Log10GI50: −11.43
[12]; KM12 (Colon Cancer), LC50: PG=−50
  Log10LC50: >−4.00 log10M
[12]; KM12 (Colon Cancer)
  Log10TGI50: −4.36 log10M
[13]; CAKI-1 (Renal Cancer), LC50: PG=−50
  Log10LC50: >−4.00 log10M
[14]
  Log10GI50 Delta: −10.15
  Log10GI50 Range: 8.00
  Log10LC50 Delta: −4.06
  Log10LC50 Range: .045
  Log10TGI50 Delta: −4.54
  Log10TGI50 Range: 7.20
[15]; OVCAR-3 (Ovarian Cancer), LC50: PG=−50
  Log10LC50: >−4.00 log10M
[15]; OVCAR-3 (Ovarian Cancer), TGI: PG=0
  Log10TGI50: −4.55 log10M
[15]; Ovarian Cancer, OVCAR-3
  Log10GI50: −10.40
[16]; LC50: PG=−50
  Log10LC50: −4.11 log10M
[16]
  Log10TGI50: −4.46 log10M
[17]; HL-60(TB) (Leukemia), LC50: PG=−50
  Log10LC50: >−4.53 log10M
[17]; HL-60(TB) (Leukemia)
  Log10TGI50: −4.53 log10M
[17]; Leukemia, HL-60(TB)
  Log10GI50: −11.57
[18]; M14 (Melanoma), LC50: PG=−50
  Log10LC50: −4.13 log10M
[18]
  Log10TGI50: −4.62 log10M
  Log10GI50: −11.73
[19]; K-562 (Leukemia), LC50: PG=−50
  Log10LC50: >−4.00 log10M
[19]; K-562 (Leukemia)
  Log10TGI50: >−4.00 log10M
[19]; Leukemia, K-562
  Log10GI50: −10.83
[20]; OVCAR-8 (Ovarian Cancer), LC50: PG=−50
  Log10LC50: >−4.00 log10M
[20]
  Log10GI50: −10.75
[21]; Leukemia, RPMI-8226
  Log10GI50: <−13.00
[21]; RPMI-8226 (Leukemia), LC50: PG=−50
  Log10LC50: >−4.00 log10M
[21]; RPMI-8226 (Leukemia), TGI: PG=0
  Log10TGI50: >−4.00 log10M

## CC1CCC2C(C)C(CC(COCC(=O)O)CC3OC4OC5(C)CCC6C(C)CCC(C3C)C46OO5)OC3OC4(C)CCC1C32OO4 (centres unmarked) [Compound 12b, bis-trioxane O-acetic acid]
[22]; Melanoma, SK-MEL-28
  Log10GI50: −4.92
[22]; SK-MEL-28 (Melanoma), TGI: PG=0
  Log10TGI50: >−4.30 log10M
[2]; PC-3 (Prostate Cancer)
  Log10TGI50: −4.92 log10M
[3]; CCRF-CEM (Leukemia)
  Log10TGI50: >−4.30 log10M
[4]
  Log10GI50: −6.45
[4]; NCI/ADR-RES (Breast Cancer)
  Log10TGI50: >−4.30 log10M
[23]
  Log10TGI50: >−4.30 log10M
[5]; HCT-116 (Colon Cancer)
  Log10TGI50: >−4.30 log10M
[6]; HCT-15 (Colon Cancer)
  Log10TGI50: −5.00 log10M
[7]; [26]
  Log10TGI50: >−4.30 log10M
[8]; COLO 205 (Colon Cancer), TGI: PG=0
  Log10TGI50: −5.28 log10M
[9]; RXF 393 (Renal Cancer)
  Log10TGI50: <−8.30 log10M
[24]; HOP-92 (Non-Small Cell Lung Cancer), TGI: PG=0
  Log10TGI50: >−4.30 log10M
[24]; Non-Small Cell Lung Cancer, HOP-92
  Log10GI50: −7.00
[10]
  Log10GI50: −5.62
[10]; SK-MEL-2 (Melanoma), TGI: PG=0
  Log10TGI50: >−4.30 log10M
[11]
  Log10GI50: −7.37
[11]; MCF7 (Breast Cancer), TGI: PG=0
  Log10TGI50: >−4.30 log10M
[12]; KM12 (Colon Cancer)
  Log10TGI50: <−8.30 log10M
[25]
  pIC50: 8.49
[13]; CAKI-1 (Renal Cancer), TGI: PG=0
  Log10TGI50: −6.40 log10M
[13]; Renal Cancer, CAKI-1
  Log10GI50: −6.91
[14]
  Log10GI50 Delta: 1.57
  Log10GI50 Range: 4.00
  Log10LC50 Delta: 0.70
  Log10LC50 Range: 0.72
  Log10TGI50 Delta: 3.49
  Log10TGI50 Range: 4.00
[14]; colon cancer KM12, ovarian cancer OVCAR 3, breast cancer MDA-MB-435
  growth inhibition in words: selectively and strong inhibitory
[14]; mean over panel
  Log10GI50 MG MID: −6.73
[14]; [27]
  Log10LC50 MG MID: −4.32 log10M
  Log10TGI50 MG MID: −4.81 log10M
[16]
  Log10TGI50: −6.40 log10M
[17]; HL-60(TB) (Leukemia)
  Log10TGI50: <−8.30 log10M
[18]
  Log10TGI50: >−4.30 log10M
  Log10GI50: −6.68
[19]; K-562 (Leukemia)
  Log10TGI50: >−4.30 log10M
[20]; OVCAR-8 (Ovarian Cancer), TGI: PG=0
  Log10TGI50: >−4.30 log10M
[20]
  Log10GI50: >−4.30
